Results reported in patent US12331035B2, “Bicyclic compound and use thereof” (SK BIOPHARMACEUTICALS CO., LTD., priority 2019, dated 2025).

Biological target: T1, PRMT5-MEP50 enzyme complex (Homo sapiens, UniProt O14744)
T1 construct: purchased BPS Bioscience (USA) 51045
Assay: In vitro PRMT5 enzyme activity assay (methylation of histone H4 arginine H4R3, ELISA absorbance at 450 nm)
Type: biochemical
Details: S-adenosylmethionine, histone H4 peptide, 2 hours at room temperature, 8 points 10 μM to 0.128 nM
In short: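 Human PRMT5-MEP50 (5 μg/mL working stock) with 2 μM SAM stock on histone H4 (1-20) peptide-coated plates, compound 8-point 1:5 series from 10 μM, 2 h at room temperature. H4R3 methylation detected by antibody/HRP ELISA, absorbance 450 nm; IC50 calculated.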

T1 sequence (O14744 2-637 limits assumed): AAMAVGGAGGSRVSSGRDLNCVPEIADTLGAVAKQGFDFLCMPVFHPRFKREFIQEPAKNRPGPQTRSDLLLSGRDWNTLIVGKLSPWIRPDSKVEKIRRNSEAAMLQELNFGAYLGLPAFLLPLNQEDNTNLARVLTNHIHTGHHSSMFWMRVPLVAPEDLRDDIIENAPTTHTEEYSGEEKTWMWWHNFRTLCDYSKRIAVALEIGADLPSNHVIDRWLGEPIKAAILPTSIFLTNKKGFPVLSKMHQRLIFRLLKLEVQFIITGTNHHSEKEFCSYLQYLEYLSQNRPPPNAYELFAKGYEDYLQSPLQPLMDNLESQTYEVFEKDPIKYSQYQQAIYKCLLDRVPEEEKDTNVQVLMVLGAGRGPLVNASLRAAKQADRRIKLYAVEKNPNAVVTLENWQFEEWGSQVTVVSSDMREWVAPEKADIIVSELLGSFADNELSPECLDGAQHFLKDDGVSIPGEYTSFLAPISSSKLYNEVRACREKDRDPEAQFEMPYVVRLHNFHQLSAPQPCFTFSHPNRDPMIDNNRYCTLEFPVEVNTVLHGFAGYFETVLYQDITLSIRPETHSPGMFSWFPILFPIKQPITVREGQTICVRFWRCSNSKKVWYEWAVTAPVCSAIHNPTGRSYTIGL
T1 sequence (Q9BQA1 2-342 partner limits assumed): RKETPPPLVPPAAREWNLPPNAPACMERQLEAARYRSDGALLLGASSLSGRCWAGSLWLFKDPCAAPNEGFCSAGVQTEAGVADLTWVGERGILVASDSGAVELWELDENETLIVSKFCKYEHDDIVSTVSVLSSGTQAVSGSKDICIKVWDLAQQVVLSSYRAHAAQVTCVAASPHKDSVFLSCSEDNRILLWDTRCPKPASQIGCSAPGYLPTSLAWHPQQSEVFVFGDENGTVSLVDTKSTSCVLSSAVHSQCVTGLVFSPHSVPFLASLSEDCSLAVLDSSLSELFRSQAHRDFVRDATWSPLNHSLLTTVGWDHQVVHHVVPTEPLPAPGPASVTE

SMILES	IC50
CC(=O)N1CCC(c2ccc3c(c2)CCN(C[C@H](O)CN2CCc4ccccc4C2)C3=O)CC1 [Example 67, 6-(1-acetyl-4-piperidyl)-2-[(2R)-3-(3,4-dihydro-1H-isoquinolin-2-yl)-2-hydroxy-propyl]-3,4-dihydroisoquinolin-1-one]	1000 to 10000 nM
CC(=O)N1CCN(Cc2ccc3c(c2)CCN(C[C@H](O)CN2CCc4ccccc4C2)C3=O)CC1 [Example 68, 6-[(4-acetylpiperazin-1-yl)methyl]-2-[(2R)-3-(3,4-dihydro-1H-isoquinolin-2-yl)-2-hydroxy-propyl]-3,4-dihydroisoquinolin-1-one]	1 to 100 nM
CCC(=O)N1CCN(c2ccc3c(c2)CCN(C[C@H](O)CN2CCc4ccccc4C2)C3=O)CC1 [Example 69, 2-[(2R)-3-(3,4-dihydro-1H-isoquinolin-2-yl)-2-hydroxy-propyl]-6-(4-propanoylpiperazin-1-yl)-3,4-dihydroisoquinolin-1-one]	100 to 1000 nM
CC(C)C(=O)N1CCN(c2ccc3c(c2)CCN(C[C@H](O)CN2CCc4ccccc4C2)C3=O)CC1 [Example 70, 2-[(2R)-3-(3,4-dihydro-1H-isoquinolin-2-yl)-2-hydroxy-propyl]-6-[4-(2-methylpropanoyl)piperazin-1-yl]-3,4-dihydroisoquinolin-1-one]	1 to 100 nM
CC(C)(C)C(=O)N1CCN(c2ccc3c(c2)CCN(C[C@H](O)CN2CCc4ccccc4C2)C3=O)CC1 [Example 71, 2-[(2R)-3-(3,4-dihydro-1H-isoquinolin-2-yl)-2-hydroxy-propyl]-6-[4-(2,2-dimethylpropanoyl)piperazin-1-yl]-3,4-dihydroisoquinolin-1-one]	1 to 100 nM
CC(C)(C)OC(=O)N1CC2CC1CN2c1ccc2c(c1)CCN(C[C@H](O)CN1CCc3ccccc3C1)C2=O (stereo partly drawn) [Example 72, tert-butyl 5-[2-[(2R)-3-(3,4-dihydro-1H-isoquinolin-2-yl)-2-hydroxy-propyl]-1-oxo-3,4-dihydroisoquinolin-6-yl]-2,5-diazabicyclo[2.2.1]heptane-2-carboxylate]	100 to 1000 nM
O=C1c2ccc(N3CC4CC3CO4)cc2CCN1C[C@H](O)CN1CCc2ccccc2C1 (stereo partly drawn) [Example 73, 2-[(2R)-3-(3,4-dihydro-1H-isoquinolin-2-yl)-2-hydroxy-propyl]-6-(2-oxa-5-azabicyclo[2.2.1]heptan-5-yl)-3,4-dihydroisoquinolin-1-one]	100 to 1000 nM
O=C1c2ccc(Cl)nc2CCN1C[C@H](O)CN1CCc2ccccc2C1 [Example 75, 2-chloro-6-[(2R)-3-(3,4-dihydro-1H-isoquinolin-2-yl)-2-hydroxy-propyl]-7,8-dihydro-1,6-naphthyridin-5-one]	100 to 1000 nM
O=C1c2ccc(N3CC4CC3CN4)cc2CCN1C[C@H](O)CN1CCc2ccccc2C1 (stereo partly drawn) [Example 76, 6-(2,5-diazabicyclo[2.2.1]heptan-2-yl)-2-[(2R)-3-(3,4-dihydro-1H-isoquinolin-2-yl)-2-hydroxy-propyl]-3,4-dihydroisoquinolin-1-one]	100 to 1000 nM
O=C1c2ccc(NC3CCCNC3)cc2CCN1C[C@H](O)CN1CCc2ccccc2C1 (stereo partly drawn) [Example 77, 2-[(2R)-3-(3,4-dihydro-1H-isoquinolin-2-yl)-2-hydroxy-propyl]-6-(3-piperidylamino)-3,4-dihydroisoquinolin-1-one]	100 to 1000 nM
CC(C)(C)OC(=O)N1CCCN(c2ccc3c(c2)CCN(C[C@H](O)CN2CCc4ccccc4C2)C3=O)CC1 [Example 78, tert-butyl 4-[2-[(2R)-3-(3,4-dihydro-1H-isoquinolin-2-yl)-2-hydroxy-propyl]-1-oxo-3,4-dihydroisoquinolin-6-yl]-1,4-diazepane-1-carboxylate]	1 to 100 nM
CN1CCCN(c2ccc3c(c2)CCN(C[C@H](O)CN2CCc4ccccc4C2)C3=O)CC1=O [Example 79, 2-[(2R)-3-(3,4-dihydro-1H-isoquinolin-2-yl)-2-hydroxy-propyl]-6-(4-methyl-3-oxo-1,4-diazepan-1-yl)-3,4-dihydroisoquinolin-1-one]	1 to 100 nM
CC(=O)N1CCCN(c2ccc3c(c2)CCN(C[C@H](O)CN2CCc4ccccc4C2)C3=O)CC1 [Example 80, 6-(4-acetyl-1,4-diazepan-1-yl)-2-[(2R)-3-(3,4-dihydro-1H-isoquinolin-2-yl)-2-hydroxy-propyl]-3,4-dihydroisoquinolin-1-one]	1 to 100 nM
CC(=O)N1CC2CC1CN2c1ccc2c(c1)CCN(C[C@H](O)CN1CCc3ccccc3C1)C2=O (stereo partly drawn) [Example 81, 6-(5-acetyl-2,5-diazabicyclo[2.2.1]heptan-2-yl)-2-[(2R)-3-(3,4-dihydro-1H-isoquinolin-2-yl)-2-hydroxy-propyl]-3,4-dihydroisoquinolin-1-one]	1 to 100 nM
CC(=O)N1CCN(c2ccc3c(c2)CCN(C[C@H](O)CN2CCc4ccccc4C2)C3=O)CC12CC2 [Example 82, 6-(4-acetyl-4,7-diazaspiro[2.5]octan-7-yl)-2-[(2R)-3-(3,4-dihydro-1H-isoquinolin-2-yl)-2-hydroxy-propyl]-3,4-dihydroisoquinolin-1-one]	1 to 100 nM
CC(=O)N1CCC(COc2ccc3c(c2)CCN(C[C@H](O)CN2CCc4ccccc4C2)C3=O)CC1 [Example 83, 6-[(1-acetyl-4-piperidyl)methoxy]-2-[(2R)-3-(3,4-dihydro-1H-isoquinolin-2-yl)-2-hydroxy-propyl]-3,4-dihydroisoquinolin-1-one]	100 to 1000 nM
CN1CCN(c2ccc3c(c2)CCN(C[C@H](O)CN2CCc4ccccc4C2)C3=O)CCC1=O [Example 84, 2-[(2R)-3-(3,4-dihydro-1H-isoquinolin-2-yl)-2-hydroxy-propyl]-6-(4-methyl-5-oxo-1,4-diazepan-1-yl)-3,4-dihydroisoquinolin-1-one]	100 to 1000 nM
CC(C)N1CCN(c2ccc3c(c2)CCN(C[C@H](O)CN2CCc4ccccc4C2)C3=O)CC1=O [Example 85, 2-[(2R)-3-(3,4-dihydro-1H-isoquinolin-2-yl)-2-hydroxy-propyl]-6-(4-isopropyl-3-oxo-piperazin-1-yl)-3,4-dihydroisoquinolin-1-one]	100 to 1000 nM
CC(=O)N1CCN(c2ccc3c(c2)CCN(C[C@H](O)CN2CCc4ccccc4C2)C3=O)C(=O)C1 [Example 86, 6-(4-acetyl-2-oxo-piperazin-1-yl)-2-[(2R)-3-(3,4-dihydro-1H-isoquinolin-2-yl)-2-hydroxy-propyl]-3,4-dihydroisoquinolin-1-one]	100 to 1000 nM
CC(=O)N1CCN(c2ccc3c(n2)CCN(C[C@H](O)CN2CCc4ccccc4C2)C3=O)CC1 [Example 88, 2-(4-acetylpiperazin-1-yl)-6-[(2R)-3-(3,4-dihydro-1H-isoquinolin-2-yl)-2-hydroxy-propyl]-7,8-dihydro-1,6-naphthyridin-5-one]	1 to 100 nM
O=C1c2ccc(N3CCOCC3)nc2CCN1C[C@H](O)CN1CCc2ccccc2C1 [Example 89, 6-[(2R)-3-(3,4-dihydro-1H-isoquinolin-2-yl)-2-hydroxy-propyl]-2-morpholino-7,8-dihydro-1,6-naphthyridin-5-one]	1 to 100 nM
CC(=O)N(C)C1CCN(c2ccc3c(c2)CCN(C[C@H](O)CN2CCc4ccccc4C2)C3=O)CC1 [Example 90, N-[1-[2-[(2R)-3-(3,4-dihydro-1H-isoquinolin-2-yl)-2-hydroxy-propyl]-1-oxo-3,4-dihydroisoquinolin-6-yl]-4-piperidyl]-N-methyl-acetamide]	1 to 100 nM
O=C1c2ccc(OC3CCOCC3)cc2CCN1C[C@H](O)CN1CCc2ccccc2C1 [Example 91, 2-[(2R)-3-(3,4-dihydro-1H-isoquinolin-2-yl)-2-hydroxy-propyl]-6-tetrahydropyran-4-yloxy-3,4-dihydroisoquinolin-1-one]	1 to 100 nM
CC(=O)NC1CCN(c2ccc3c(c2)CCN(C[C@H](O)CN2CCc4ccccc4C2)C3=O)CC1 [Example 92, N-[1-[2-[(2R)-3-(3,4-dihydro-1H-isoquinolin-2-yl)-2-hydroxy-propyl]-1-oxo-3,4-dihydroisoquinolin-6-yl]-4-piperidyl]acetamide]	100 to 1000 nM
CC(=O)N1CCCC(Nc2ccc3c(c2)CCN(C[C@H](O)CN2CCc4ccccc4C2)C3=O)C1 (stereo partly drawn) [Example 93, 6-[(1-acetyl-3-piperidyl)amino]-2-[(2R)-3-(3,4-dihydro-1H-isoquinolin-2-yl)-2-hydroxy-propyl]-3,4-dihydroisoquinolin-1-one]	1 to 100 nM
O=C1c2ccc(N3CCN4C(=O)OCC4C3)cc2CCN1C[C@H](O)CN1CCc2ccccc2C1 (stereo partly drawn) [Example 94, 7-[2-[(2R)-3-(3,4-dihydro-1H-isoquinolin-2-yl)-2-hydroxy-propyl]-1-oxo-3,4-dihydroisoquinolin-6-yl]-5,6,8,8a-tetrahydro-1H-oxazolo[3,4-a]pyrazin-3-one]	1 to 100 nM
CC(=O)N1CCC(Oc2ccc3c(c2)CCN(C[C@H](O)CN2CCc4ccccc4C2)C3=O)CC1 [Example 95, 6-[(1-acetyl-4-piperidyl)oxy]-2-[(2R)-3-(3,4-dihydro-1H-isoquinolin-2-yl)-2-hydroxy-propyl]-3,4-dihydroisoquinolin-1-one]	100 to 1000 nM
CC(=O)N1CC(Oc2ccc3c(c2)CCN(C[C@H](O)CN2CCc4ccccc4C2)C3=O)C1 [Example 96, 6-(1-acetylazetidin-3-yl)oxy-2-[(2R)-3-(3,4-dihydro-1H-isoquinolin-2-yl)-2-hydroxy-propyl]-3,4-dihydroisoquinolin-1-one]	100 to 1000 nM
CN(C)C(=O)C1CCN(c2ccc3c(c2)CCN(C[C@H](O)CN2CCc4ccccc4C2)C3=O)CC1 [Example 97, 1-[2-[(2R)-3-(3,4-dihydro-1H-isoquinolin-2-yl)-2-hydroxy-propyl]-1-oxo-3,4-dihydroisoquinolin-6-yl]-N,N-dimethyl-piperidine-4-carboxamide]	100 to 1000 nM
CC(=O)N1CCCC(Nc2ccc3c(c2)CCN(C[C@H](O)CN2CCc4ccccc4C2)C3=O)CC1 (stereo partly drawn) [Example 98, 6-[(1-acetylazepan-4-yl)amino]-2-[(2R)-3-(3,4-dihydro-1H-isoquinolin-2-yl)-2-hydroxy-propyl]-3,4-dihydroisoquinolin-1-one]	100 to 1000 nM
